Experimental data as given in PMC12947280, “An Antifungal with a Novel Mechanism of Action Discovered via Resistance Gene-Guided Genome Mining” (ACS Central Science, 2026).

What was measured:
[1] = Liver microsome stability, human; format: in vitro ADME; conditions: human liver microsomes; read-out: Liver microsome t1/2 Human
A. fumigatus = assay: Inhibition of A. fumigatus growth; format: cell-based; conditions: Aspergillus fumigatus
AfALS = assay: Intact protein mass spectrometry; format: binding, Aspergillus fumigatus; conditions: 10 μM, 30 min
Source text: We next characterized the structural basis for binding of 1 to ALS. Given the strained structure and the observed tight binding kinetics, we hypothesized that 1 may be binding covalently. Analysis of ALS from both AfALS and ScALS by intact protein mass spectrometry yielded traces with multiple proteoforms for both proteins. […] Limited proteolysis followed by peptide mapping localized the covalent attachment to the 239[…]258 peptide of ScALS with Lys251 and Asp252 (equivalent to Lys310 and Asp311 in AfALS) serving as the most likely attachment sites (Figure S7).

Plasma stability, human = format: in vitro ADME; conditions: read-out: Plasma t1/2 Human
[2] = Liver microsome stability, mouse; format: in vitro ADME; conditions: mouse liver microsomes; read-out: Liver microsome t1/2 Mouse
S. cerevisiae ALS P192S = biological target: T1, S. cerevisiae ALS P192S (Saccharomyces cerevisiae, UniProt P07342, P192S); assay: biochemical; format: biochemical
T1 construct: His6 (followed by a TEV protease site, pET28a) (N); made in house; host or cells: E. coli (inferred from the ScALS method)
Procedure: ALS biochemical assay (ScALS)
Saccharomyces cerevisiae acetohydroxyacid synthase (ScALS) lacking the N-terminal […]
Escherichia coli as an N-terminally His6-tagged protein. Assays (50 µL final volume) contained […]
adenine dinucleotide, 10 mM MgCl2, 1 mM DTT, 1% DMSO (± inhibitor) in 500 mM K2HPO4 buffer at pH 7.5. Following a 30 min pre-incubation of the enzyme and inhibitor in the reaction mixture at room temperature, reactions were initiated with the addition of pyruvate. ScALS assays were carried out at 30 °C for 60 min. The reaction was quenched with the addition of 5 µL of 10% H2SO4 (v/v in deionized water). Reactions were incubated at 60 °C at 800 rpm in an […]
to acetoin. Subsequently, the concentration of acetoin was determined by the addition of 7.5 µL 6 M NaOH, 25 µL 0.5% creatine (w/v in deionized water), and 25 µL 4% 1-naphthol (w/v in 2.5 M NaOH). This mixture was incubated at 60 °C at 800 rpm in an incubating microplate shaker for […]
40 µL of this reaction mixture was transferred to a half area UV-star 96-well plate (Grenier) and the absorbance at 525 nm was measured on a Spark multimode plate reader (Tecan). The percent inhibition was calculated by the comparison of the signal to DMSO (0% […]
IC50 values were calculated from the dose response curves using Prism 9 (four parameter, variable slope). […]
Expression and purification of ScALS
S. cerevisiae ILV2 (the gene or ScALS) lacking the N-terminal mitochondrial-localization tag

C. albicans ALS = C. albicans ALS (Candida albicans, UniProt A0A1D8PJF9); assay: ALS biochemical assay (CaALS)
[3] = parameters: method as in PMID 41148120; conditions: another study; cited from earlier work
S. cerevisiae ALS = biological target: T2, S. cerevisiae ALS (Saccharomyces cerevisiae, UniProt P07342); assay: FAD cofactor reoxidation upon incubation with ALS; format: biochemical; conditions: in contrast to accumulative inhibitors 2 and 3
T2 construct: made in house; host or cells: E. coli BL21 (DE3), pET28a-ScILV2
T2 sequence (P07342 58-687): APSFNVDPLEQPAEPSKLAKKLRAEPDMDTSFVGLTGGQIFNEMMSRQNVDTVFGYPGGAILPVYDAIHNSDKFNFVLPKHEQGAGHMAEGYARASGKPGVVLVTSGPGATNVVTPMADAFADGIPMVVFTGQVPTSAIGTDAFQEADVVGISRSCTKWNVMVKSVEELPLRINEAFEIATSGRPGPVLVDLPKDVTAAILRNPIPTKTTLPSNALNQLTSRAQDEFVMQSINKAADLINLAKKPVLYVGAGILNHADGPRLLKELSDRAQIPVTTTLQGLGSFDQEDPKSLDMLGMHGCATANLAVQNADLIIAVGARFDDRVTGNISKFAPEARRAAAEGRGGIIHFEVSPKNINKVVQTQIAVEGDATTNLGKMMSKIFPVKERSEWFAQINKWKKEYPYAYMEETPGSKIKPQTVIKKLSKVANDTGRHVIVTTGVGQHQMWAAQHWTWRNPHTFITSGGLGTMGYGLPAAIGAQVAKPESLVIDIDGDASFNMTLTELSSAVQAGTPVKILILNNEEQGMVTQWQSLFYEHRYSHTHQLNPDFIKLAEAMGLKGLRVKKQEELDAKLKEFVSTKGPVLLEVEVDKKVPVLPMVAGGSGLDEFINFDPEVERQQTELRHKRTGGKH

T1 sequence (P07342 58-687 P192S): as the sequence (P07342 58-687) above, with P135S counted along it
C. albicans ALS, sequence (A0A1D8PJF9 entry or part of it): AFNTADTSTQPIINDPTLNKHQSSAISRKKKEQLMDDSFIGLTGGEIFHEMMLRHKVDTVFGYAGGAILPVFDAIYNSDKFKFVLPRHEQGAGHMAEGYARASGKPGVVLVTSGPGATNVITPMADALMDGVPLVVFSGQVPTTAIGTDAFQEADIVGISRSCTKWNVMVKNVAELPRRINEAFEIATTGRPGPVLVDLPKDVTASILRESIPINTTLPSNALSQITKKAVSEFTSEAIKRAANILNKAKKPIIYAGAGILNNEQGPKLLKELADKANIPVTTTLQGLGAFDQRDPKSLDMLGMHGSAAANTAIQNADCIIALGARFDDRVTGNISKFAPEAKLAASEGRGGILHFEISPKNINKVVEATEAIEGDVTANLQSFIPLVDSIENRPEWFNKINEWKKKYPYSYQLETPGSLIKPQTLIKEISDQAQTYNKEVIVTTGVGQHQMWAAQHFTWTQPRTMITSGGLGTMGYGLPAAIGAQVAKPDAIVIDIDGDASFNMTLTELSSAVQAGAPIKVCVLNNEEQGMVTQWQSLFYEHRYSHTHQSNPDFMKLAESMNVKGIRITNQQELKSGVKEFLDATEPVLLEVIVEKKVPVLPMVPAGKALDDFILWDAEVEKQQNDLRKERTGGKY

CCCC1C(C)=CC2CC=CC3(C)C2C1C(=O)C31C(=O)NC(CCCO)C1=O (centres unmarked) [compound 1]
half-life [1]: 3 min
EC50 (A. fumigatus; read-out: A. fumigatus growth inhibition EC50 (Figure 4A)): 0.7 ± 0.5 µM
IC50 (A. fumigatus; read-out: A. fumigatus growth inhibition IC50): 0.7 µM
covalent modification of AfALS (intact mass shift) (AfALS): mass shifts consistent with covalent addition
half-life (Plasma stability, human): 79 min
half-life [2]: 3 min
IC50 (S. cerevisiae ALS P192S): 0.066 ± 0.009 µM
shift in potency, P192S mutant ScALS compared to wild-type ScALS (S. cerevisiae ALS P192S): 4 fold
IC50 (C. albicans ALS): 0.06 ± 0.01 µM
herbicidal activity [3]: modest herbicidal activity
FAD reoxidation upon treatment (S. cerevisiae ALS): no indication of FAD reoxidation
